According to US10883116B2, “Transduction buffer” (Koninklijke Nederlandse Akademie van Wetenschappen, priority 2013, dated 2021):
Where two headings read alike, the source gives them in different places. One block for each compound: values may come before it.

Assays:
[1] = test system: murine embryonic fibroblasts (MEFs); test: β-Lactamase protein transduction assay (CCF2-AM), protocol 3/700; conditions: for protein transducing activity of hypertonicity-inducing compound: tonicity adjusted to 700 mOsm/Kg with the compound, 25 mM NDSB201 and osmoprotectants; for effect of endocytic pathway inhibitor on protein transduction / enhancement of protein transduction by GABA agonist: 1 μM β-lactamase; for enhancement of protein transduction by GABA agonist: 25 mM NDSB201 plus GABA agonist, NDSB201 alone = 100%; for protein transduction activity (in words): 25 mM compound, compared with NDSB201 (#01) or parent compound; for effect of growth factor or peptide on β-lactamase transduction of MEFs: 25 mM NDSB201, 30 mM Glycerol, 15 mM Glycine
Text: To further characterize the protein transduction process we analyzed the effect of time, osmolality, transduction compound concentration and protein concentration on the transduction process. To this end, we set up a β-Lactamase protein transduction assay and measured intracellular β-Lactamase activity using CCF2-AM, an intracellular fluorescent β-Lactamase substrate that changes emission wavelength when cleaved by the enzyme (FIG. 3A). […] While we used the immortalized COS7 cell line in our initial studies, we wanted to know if the compound-mediated protein transduction would also allow the transduction of protein into primary cells. We therefore transduced murine embryonic fibroblasts (MEFs) with β-Lactamase (1 μM final concentration), using NaCl-adjusted hypertonic media (700 mOsm/Kg) and 25 mM NDSB201. β-Lactamase activity was set at 1 at the start of the experiment and relative intracellular β-Lactamase activity was measured as a function of time (FIG. 3B, bars). As a control, β-Lactamase transduction was measured in isotonic media in the presence of 25 mM NSDB201 (FIG. 3B, open circles).
β-lactamase transduction was performed using the 3/700 protocol above in murine embryonic fibroblasts (MEFs). A black, clear-bottom 96 well-plate was coated with 0.15 mg/ml of Poly-D-Lysine for 1 h at room temperature. 12,000 MEFs cells were seeded per well in MEF media without antibiotics. Next day, cells were transduced using the transduction protocol 3/700 as describe above. […] Na- or Rb-salt was added to adjust the final tonicity to 700 mOsm/Kg. […] After 3 hrs., the transduction media was replaced by fresh MEF media for 30 min. Subsequently, cells were washed once with phenol-red-free DMEM. β-lactamase activity was measured using the CCF2-AM kit following the manufacturer's instructions. In brief, 120 μl of CCF2-AM loading media was added per well and cells were incubated for 1 h at room temperature. Cells were washed two times with DMEM phenol-red free and incubated for an additional 30-60 min. Fluorescence emission was measured at […] and 510 nm following manufacturer's instructions. All tests were done in triplicate.

COS7 cells = test: Oct4 luciferase reporter (6×OCT4-TK-Luc) protein transduction assay; type: cell-based
[2] = test system: MEFs cells expressing GAL3-GFP protein; test: GAL3-GFP macropinosome vesicle leakage reporter assay; conditions: 700/3 conditions
[3] = test system: murine embryonic fibroblasts (MEFs); test: BrdU incorporation (cell proliferation) after transduction of MEFs; conditions: BrdU 24 hrs after start of transduction, 25 mM compound, 700 mOsm/Kg
[4] = 3 hours, 700 mOsm/Kg NaCl, 25 mM NDSB201
[5] = 3 hours, 25 mM NDSB201, tonicity adjusted with NaCl

protein transducing activity of hypertonicity-inducing compound ([1]; 3 hours): failed to induce protein transduction
Compound: OC[C@H]1O[C@@H](O[C@@H]2[C@@H](CO)OC(O)(CO)[C@H]2O)[C@H](O)[C@@H](O)[C@H]1O (mixture of isomers) [Lactulose]

Compound: CN(C)CCCN1c2ccccc2Sc2ccc(Cl)cc21 [Chlorpromazine, reference compound]
effect of endocytic pathway inhibitor on protein transduction [1, 4]: ineffective in inhibiting protein transduction

Compound: [Cl-].[Cs+] [CsCl, caesium chloride]
protein transducing activity of hypertonicity-inducing compound ([1]; 3 hours): had protein transducing activity

Compound: C=C1[C@@H](C)[C@H]2[C@H](Cc3ccccc3)NC(=O)[C@]23[C@H](OC(C)=O)/C=C/[C@@](C)(O)C(=O)[C@@H](C)C/C=C/[C@H]3[C@@H]1O [Cytochalasin D, reference compound]
effect of endocytic pathway inhibitor on protein transduction [1, 4]: completely blocked protein transduction

effect of endocytic pathway inhibitor on protein transduction [1, 4]: strongly inhibited
Compound: CN(C)c1nc(N)c(C(=O)N=C(N)N)nc1Cl.Cl [DMA, 5-(N,N-dimethyl) amiloride hydrochloride, reference compound]

Compound: O=C(N/N=C/c1ccc(O)c(O)c1)c1cc2ccccc2cc1O [Dynasore, reference compound]
effect of endocytic pathway inhibitor on protein transduction [1, 4]: ineffective in inhibiting protein transduction

Compound: [Cl-].[K+] [KCl, potassium chloride]
protein transducing activity of hypertonicity-inducing compound ([1]; 3 hours): had protein transducing activity

Compound: C/C1=C/C(=O)O[C@@H]2C[C@@H](CC[C@H](C)/C=C\C=C\CC1)O[C@@](O)([C@@H]1CSC(=O)N1)C2 [Latrunculin A, reference compound]
effect of endocytic pathway inhibitor on protein transduction [1, 4]: completely blocked protein transduction

Compound: [Cl-].[Li+] [LiCl, lithium chloride]
protein transducing activity of hypertonicity-inducing compound ([1]; 3 hours): had protein transducing activity

protein transducing activity of hypertonicity-inducing compound ([1]; 3 hours): failed to induce protein transduction
Compound: OC[C@@H](O)[C@@H](O)[C@H](O)[C@H](O)CO [Manitol]

Compound: NCc1cc(=O)[nH]o1 [Muscimol, reference compound]
enhancement of protein transduction by GABA agonist ([1]; 3 hours, 700 mOsm/Kg): approximately 300%

Compound: [Cl-].[Na+] [NaCl, Sodium chloride]
osmolality beyond which cell loss was observed [1, 5]: > 850 mOsm/Kg
osmolality of maximal β-Lactamase transduction [1, 5]: 700-800 mOsm/Kg
protein transducing activity of hypertonicity-inducing compound ([1]; 3 hours): the highest activity
effect of omitting buffer component on Oct4-reporter activation by Oct4-VP16 protein (COS7 cells): abrogated Oct4-reporter activation

Compound: C[C@@H]1[C@H](O)[C@@H](C)/C=C/C=C/CC/C=C/C=C/C=C/C=C/C(O[C@H]2O[C@H](C)[C@@H](O)[C@H](N)[C@@H]2O)CC2O[C@](O)(CC(O)C(O)CCC(O)CC(O)CC(O)CC(=O)O[C@H]1C)CC(O)C2C(=O)O (some centres unmarked) [Nystatin, reference compound]
effect of endocytic pathway inhibitor on protein transduction [1, 4]: ineffective in inhibiting protein transduction

Compound: O=C1NC(=NS(=O)(=O)c2cccc3ccccc23)S/C1=C\c1ccc(Br)cc1 [Pitstop2, reference compound]
effect of endocytic pathway inhibitor on protein transduction [1, 4]: ineffective in inhibiting protein transduction

Compound: [Cl-].[Rb+] [RbCl, rubidium chloride]
protein transducing activity of hypertonicity-inducing compound ([1]; 3 hours): the highest activity

Compound: CP(=O)(O)CCCN [SKF-97541, reference compound]
enhancement of protein transduction by GABA agonist ([1]; 3 hours, 700 mOsm/Kg): approximately 300%

Compound: O=C([O-])[C@H](O)[C@@H](O)[C@H](O)[C@H](O)CO.[Na+] [Sodium Gluconate]
protein transducing activity of hypertonicity-inducing compound ([1]; 3 hours): efficiency similar to NaCl and RbCl

protein transducing activity of hypertonicity-inducing compound ([1]; 3 hours): failed to induce protein transduction
Compound: OC[C@@H](O)[C@@H](O)[C@H](O)[C@@H](O)CO [Sorbitol]

protein transducing activity of hypertonicity-inducing compound ([1]; 3 hours): failed to induce protein transduction
Compound: OC[C@H]1O[C@@](CO)(O[C@H]2O[C@H](CO)[C@@H](O)[C@H](O)[C@H]2O)[C@@H](O)[C@@H]1O [Sucrose]

Compound: O=S(=O)([O-])CCC[n+]1ccccc1 [compound 1, 3-(1-pyridino)-1-propanesulfonate, reference compound]
time after initiation of transduction at which intracellular β-Lactamase activity could be observed ([1]; 1 μM β-Lactamase, 700 mOsm/Kg NaCl, 25 mM NDSB201): 2.5 h
effect of higher compound concentrations under hyperosmotic conditions ([1]; 700 mOsm/kg, above 10-25 mM): cell loss
protein transduction activity (in words) ([1]; 3 hours, 700 mOsm/Kg): most efficient
transduction compound concentration at peak β-Lactamase transduction ([1]; 3 hours, 700 mOsm/kg NaCl, 1 μM β-Lactamase): 10 to 25 mM
effect of omitting buffer component on Oct4-reporter activation by Oct4-VP16 protein (COS7 cells; COS7 cells): abrogated Oct4-reporter activation
Gal3-GFP localisation to macropinocytic vesicles (vesicle leakage) [2]: bright vesicle formation

protein transduction activity (in words) ([1]; 3 hours, 700 mOsm/Kg): most efficient
Compound: C[N+]1(CCCS(=O)(=O)[O-])CCCCC1 [compound 03, 3-(1-methylpiperidine)-1-propanesulfonate, reference compound]

Compound: CCC(C)(C)CCCS(=O)(=O)O [compound 07]
protein transduction activity (in words) ([1]; 3 hours, 700 mOsm/Kg): greatly diminished transduction activity
effect on cell proliferation / viability (BrdU incorporation, in words) [3]: severe cell cycle inhibition

protein transduction activity (in words) ([1]; 3 hours, 700 mOsm/Kg): little to no transduction activity
Compound: NCC(=O)O [compound 18, Glycine]
β-lactamase transduction activity when combined with reference compound #01 (reference set at 100%) ([1]; equimolar with NDSB201 (#01), 12.5 mM each, total 25 mM, 3 hours, 700 mOsm/Kg): approximately 15%
Gal3-GFP localisation to macropinocytic vesicles (vesicle leakage) [2]: did not localize into the macropinocytic vesicles

protein transduction activity (in words) ([1]; 3 hours, 700 mOsm/Kg): greatly diminished transduction activity
Compound: CCCCC(=O)O [compound 23, pentanoic acid]
effect on cell proliferation / viability (BrdU incorporation, in words) [3]: severe cell cycle inhibition

protein transduction activity (in words) ([1]; 3 hours, 700 mOsm/Kg): greatly diminished transduction activity
Compound: CCCCN [compound 24, n-butylamine]
effect on cell proliferation / viability (BrdU incorporation, in words) [3]: severe cell cycle inhibition

effect of growth factor or peptide on β-lactamase transduction of MEFs ([1]; 3 hours, 700 mOsm/Kg): doubling of β-lactamase uptake
Compound: EGF: epidermal growth factor

Compound: Insulin: Insulin
effect of growth factor or peptide on β-lactamase transduction of MEFs ([1]; 3 hours, 700 mOsm/Kg): small, but significant stimulatory effect

effect of growth factor or peptide on β-lactamase transduction of MEFs ([1]; 3 hours, 700 mOsm/Kg): doubling of β-lactamase uptake
Compound: PDGF
